Key:
[1] = tested on: Rec-1; assay: Anti Proliferation Assay (MTS), Rec-1; assay type: cell-based; conditions: Homo sapiens, Rec1, Rec-1 cells, 72 hours treatment
Description: (§1) Cell survival was determined by the MTS assay. Briefly, cells were plated in a 96-well plate at 2,000-10,000 cells per well, cultured for 24 hours in complete growth medium, and then treated with various drugs and drug combinations for 72 hours. MTS/PMS was added and incubated for 4 hour, followed by assessment of cell viability using the microplate reader (absorbance at 490 nm). Data were normalized to untreated controls and analyzed with Microsoft Excel.

[2] = biological target: T1, Full-length BTKC481S (Homo sapiens, UniProt Q06187, C481S); assay: BTKC481S Kinase Activity Assay; assay type: biochemical; conditions: AlphaScreen, 60 μM ATP; test concentration not given
T1 construct: Full-length BTKC481S was diluted in assay buffer
T1 sequence (Q06187 whole entry C481S): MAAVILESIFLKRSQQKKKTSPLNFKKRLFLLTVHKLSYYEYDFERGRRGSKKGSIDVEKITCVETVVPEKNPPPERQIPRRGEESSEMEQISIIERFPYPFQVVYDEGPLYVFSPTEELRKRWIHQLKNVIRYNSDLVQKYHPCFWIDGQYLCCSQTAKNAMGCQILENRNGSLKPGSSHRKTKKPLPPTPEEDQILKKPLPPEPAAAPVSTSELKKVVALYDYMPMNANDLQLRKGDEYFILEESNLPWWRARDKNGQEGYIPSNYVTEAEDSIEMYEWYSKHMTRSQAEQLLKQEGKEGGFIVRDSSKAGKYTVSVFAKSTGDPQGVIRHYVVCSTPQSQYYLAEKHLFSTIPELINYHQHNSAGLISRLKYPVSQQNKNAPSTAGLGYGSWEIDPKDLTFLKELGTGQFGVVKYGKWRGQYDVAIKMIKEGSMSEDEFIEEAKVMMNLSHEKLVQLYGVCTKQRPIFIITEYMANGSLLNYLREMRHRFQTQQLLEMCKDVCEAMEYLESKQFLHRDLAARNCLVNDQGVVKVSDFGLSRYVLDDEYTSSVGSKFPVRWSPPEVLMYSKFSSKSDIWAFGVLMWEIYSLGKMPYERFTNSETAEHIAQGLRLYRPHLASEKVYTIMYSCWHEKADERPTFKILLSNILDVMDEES
Description: BTKC481S Kinase Activity Assay
Test inhibitors and controls (Staurosporine) were prepared in 10% DMSO at 10-fold the desired final concentration, and added to each well of a reaction plate (Corning 96-well half-area solid white nonbinding surface plate) in a volume of 2.5 μl. Full-length BTKC481S was diluted in assay buffer (50 mM Tris, pH 8.0, 0.02 mg/ml BSA, 10 mM MgCl2, 1 mM EGTA, 10% glycerol, 1 mM DTT, 1 mM β-glycerophosphate, and 1 mM NaF) and added to each well in a volume of 17.5 μl for a final concentration in the 25 μl reaction of 10 nM. After a 30 minute pre-incubation at room temperature, the kinase reaction was initiated by the addition of 5 μl of an activation mixture diluted in assay buffer containing biotinylated PLCγ2 peptide, and ATP for final concentrations of 125 nM biotinylated PLCγ2, and 60 μM ATP. The plates were incubated for 60 minutes at room temperature. The reactions were stopped in the dark by the addition of 10 μl stop/detection mixture prepared in assay buffer containing EDTA, Staurosporine and AlphaScreen™ Streptavidin Donor and anti-pTYR100 Acceptor beads. The final concentrations were 15 mM EDTA, 1 μM Staurosporine and 500 ng/well of both AlphaScreen™ (Amplified Luminescent Proximity Homogeneous Assay) technology donor and acceptor beads. Assay plates were incubated for 60 minutes at room temperature in the dark, and the plates were read on a Perkin Elmer Envision Multilabel plate reader (excitation wavelength: […], emission wavelength: 570 nm).

[3] = tested on: TMD-8; assay: Anti Proliferation Assay (MTS), TMD-8; assay type: cell-based; conditions: Homo sapiens, TMD8, TMD-8 cells, 72 hours treatment
Description: as §1

[4] = biological target: Full-length inactive BTK (Homo sapiens, UniProt Q06187); assay: BTK Kinase Activity Assay; assay type: biochemical; conditions: AlphaScreen, 25 μM ATP, 30 minute pre-incubation
Chain of Full-length inactive BTK (Q06187 whole entry): as the sequence (Q06187 whole entry C481S) above, with S481C counted along it
Description: BTK Kinase Activity Assay
After a 30 minute pre-incubation at room temperature, the kinase reaction was initiated by the addition of 5 μl of an activation mixture diluted in assay buffer containing biotinylated PLCγ2 peptide, DOPS/DOPC, PtdIns(3,4,5)P3, and ATP for final concentrations of 100 nM biotinylated PLCγ2, 5.5 μM DOPS, 5.5 μM DOPC, 0.5 μM PtdIns(3,4,5)P3, and 25 μM ATP. The plates were incubated for 60 minutes at room temperature. The reactions were stopped in the dark by the addition of 10 μl stop/detection mixture prepared in assay buffer containing EDTA and AlphaScreen™ Streptavidin Donor and anti-pTYR100 Acceptor beads. The final concentrations were 10 mM EDTA and 500 ng/well of both AlphaScreen™ (Amplified Luminescent Proximity Homogeneous Assay) technology donor and acceptor beads. Assay plates were incubated for 60 minutes at room temperature in the dark, and the plates were read on a Perkin Elmer Envision Multilabel plate reader (excitation wavelength: […], emission wavelength: 570 nm).

Row | SMILES | IC50 [1] [nM] | BTK (C481S) (% inhibition) [2] [%] | IC50 [3] [nM] | IC50 [4] [nM]
1 | O=c1c2c[nH]nc2c2cnc(NCC3COc4ccccc4O3)nc2n1-c1ccccc1 (stereo not shown) [Compound 14, 7-(((2,3-dihydrobenzo[b][1,4]dioxin-2-yl)methyl)amino)-5-phenyl-2H-pyrazolo[3′,′:4,5]pyrido[2,3-d]pyrimidin-4(5H)-one] | 4300 | 92.8 | 4000 | 240
2 | Cc1[nH]nc2c1c(=O)n(-c1ccccc1)c1nc(NC[C@H]3COc4ccccc4O3)ncc21 [Compound 210, 7-{[(2S)-2,3-dihydro-1,4-benzodioxin-2-ylmethyl]amino}-3-methyl-5-phenyl-2,5-dihydro-4H-pyrazolo[3′,′:4,5]pyrido[2,3-d]pyrimidin-4-one] | 6800 | 73.3 | 7100 | 140
3 | CN(CC1COc2ccccc2O1)c1ncc2c3[nH]nc(N)c3c(=O)n(-c3ccccc3)c2n1 (stereo not shown) [Compound 223, 3-amino-7-[(2,3-dihydro-1,4-benzodioxin-2-ylmethyl)(methyl)amino]-5-phenyl-1,5-dihydro-4H-pyrazolo[3′,4′:4,5]pyrido[2,3-d]pyrimidin-4-one] | 6200 | 98.2 | 11300 | 38
4 | CN1CC(CNc2ncc3c4n[nH]cc4c(=O)n(-c4ccccc4F)c3n2)Oc2ccccc21 (stereo not shown) [Compound 229, 5-(2-fluorophenyl)-7-(((4-methyl-3,4-dihydro-2H-benzo[b][1,4]oxazin-2-yl)methyl)amino)-2H-pyrazolo[3′,4′:4,5]pyrido[2,3-d]pyrimidin-4(5H)-one] | 2600 | 99.2 | 1400 | 34
5 | CN(C[C@H]1CN(C)c2ccccc2O1)c1ncc2c3[nH]nc(N)c3c(=O)n(-c3ccccc3F)c2n1 [Compound 342, 3-amino-5-(2-fluorophenyl)-7-(methyl{[(2R)-4-methyl-3,4-dihydro-2H-1,4-benzoxazin-2-yl]methyl}amino)-1,5-dihydro-4H-pyrazolo[3′,4′:4,5]pyrido[2,3-d]pyrimidin-4-one] | 2600 | 101 | 700 | 11
6 | CN1C[C@H](CNc2ncc3c4n[nH]cc4c(=O)n(-c4ccccc4F)c3n2)Oc2ccccc21 [Compound 343, 5-(2-fluorophenyl)-7-({[(2S)-4-methyl-3,4-dihydro-2H-1,4-benzoxazin-2-yl]methyl}amino)-2,5-dihydro-4H-pyrazolo[3′,4′:4,5]pyrido[2,3-d]pyrimidin-4-one] | 1400 | 100 | 600 | 14
7 | CN1C[C@H](CNc2ncc3c4[nH]nc(N)c4c(=O)n(-c4ccccc4)c3n2)Oc2cc(F)ccc21 [Compound 345, 3-amino-7-({[(2S)-7-fluoro-4-methyl-3,4-dihydro-2H-1,4-benzoxazin-2-yl]methyl}amino)-5-phenyl-1,5-dihydro-4H-pyrazolo[3′,4′:4,5]pyrido[2,3-d]pyrimidin-4-one] | 14700 | 36.1 | 3200 | 4.6
8 | O=c1c2c[nH]nc2c2cnc(NCC3CNc4ccccc4O3)nc2n1-c1ccccc1F (stereo not shown) [Compound 346, 7-[(3,4-dihydro-2H-1,4-benzoxazin-2-ylmethyl)amino]-5-(2-fluorophenyl)-2,5-dihydro-4H-pyrazolo[3′,4′:4,5]pyrido[2,3-d]pyrimidin-4-one] | 32000 | 85.2 | 9600 | 33
9 | O=c1[nH]nc2c3cnc(NCC4COc5ccccc5O4)nc3n(-c3ccccc3)cc1-2 (stereo not shown) [Compound 356, 7-(((2,3-dihydrobenzo[b][1,4]dioxin-2-yl)methyl)amino)-5-phenyl-2H-pyrazolo[3′,′:4,5]pyrido[2,3-d]pyrimidin-3(5H)-one] | 18500 | 53.7 | 23000 | 330
10 | Cc1c2c(=O)[nH]nc-2c2cnc(NC[C@H]3COc4ccccc4O3)nc2n1-c1ccccc1 [Compound 359, 7-{[(2S)-2,3-dihydro-1,4-benzodioxin-2-ylmethyl]amino}-4-methyl-5-phenyl-2,5-dihydro-3H-pyrazolo[3′,′:4,5]pyrido[2,3-d]pyrimidin-3-one] | 23700 | 59 | 27000 | 33

Reference: patent US9012466B2, “Substituted tricyclic pyrazolo-pyrimidine compounds” (ArQule, Inc., priority 2013, dated 2015)
